In general, Ki refers to the equilibrium dissociation constant of an inhibitor or competing ligand from its target. A low value points to tighter binding. One may read the ED50 as the midpoint of the dose-response relation.

Where a name gives a salt, the structure may show the parent alone. Read-outs that look alike come from different tables or passages of the source.

The values that follow come from US5686461A, “Indole derivatives” (Glaxo Wellcome S.p.A., priority 1993, dated 1997).

For assay [1], the target named is T1, strychnine insensitive glycine binding site located on the NMDA receptor complex (Rattus norvegicus, UniProt P35439).
T1 construct: from tissue
Briefly: biochemical.

The next assay relates to NMDA induced convulsions. Briefly: inhibition of NMDA induced convulsions in the mouse (procedure of Chiamulera C et al.). It is filed as in vivo. From the text:
In this test the ability of the compound to inhibit the generalized seizures induced by an intracerebroventricular injection of NMDA in mice was examined at a number of dose levels. […] This expressed as mg/kg is referred to as the ED50 value.

The mark [2] stands for this setting: mouse, intravenous, NMDA given intracerebroventricularly, read-out: ED50 (dose required to protect 50% of the animals from the convulsive action of NMDA), iv.
[3] abbreviates: mouse, oral, NMDA given intracerebroventricularly, read-out: ED50 (dose required to protect 50% of the animals from the convulsive action of NMDA), po.

`O=C(/C=C/c1c(C(=O)O)[nH]c2cc(Cl)cc(Cl)c12)NC1C2CC3CC(C2)CC1C3` (stereo not drawn) [Example 17, (E) 3-[2'-(2"-adamantylaminocarbonyl)ethenyl]-4,6-dichloroindole-2-carboxylic acid sodium salt] had a Ki in assay [1] of 25.1 nM.

Molecule `O=C(/C=C/c1c(C(=O)O)[nH]c2cc(Cl)cc(Cl)c12)N[C@@H]1C[C@H]2CC[C@@H]1C2` (relative stereo) [Example 10b, (E)-3-(2'-exo-2-norbornylcarbamoyl)ethenyl)-4,6-dichloroindole-2-carboxylicacid sodium salt] gave a Ki in assay [1] of 20 nM. The ED50 with NMDA induced convulsions (setting [2]) turned out to be 0.01 mg/kg; in the assay with NMDA induced convulsions (setting [3]), 11.1 mg/kg.

On to `O=C(/C=C/c1c(C(=O)O)[nH]c2cc(Cl)cc(Cl)c12)N[C@H]1C[C@H]2CC[C@@H]1C2` (relative stereo) [Example 11, (E) 3-[2-endo-2-norbornylcarbamoyl)ethenyl]4,6-dichloroindole-2-carboxylic acid sodium salt], for which, in assay [1], the Ki was 10 nM. This counts as double-digit nanomolar.

On to `O=C(/C=C/c1c(C(=O)[O-])[nH]c2cc(Cl)cc(Cl)c12)NC12CC3CC(CC(C3)C1)C2.[Na+]` [sodium salt], for which the affinity in assay [1], expressed as Ki, was 63.1 nM.

Consider `O=C(/C=C/c1c(C(=O)O)[nH]c2cc(Cl)cc(Cl)c12)NC12CC3CC(CC1C3)C2` [Example 14, (E) 3-[2'-(noradamantyl-3"-aminocarbonyl)ethenyl]-4,6-dichloroindole-2-carboxylic acid sodium salt], for which the Ki in assay [1] is 26.3 nM. In addition, the values for the median effective dose (ED50) in the assay with NMDA induced convulsions (setting [2]) and with NMDA induced convulsions (setting [3]) were 0.05 mg/kg and 6 mg/kg, respectively.

Take `CC1(C)[C@@H]2CC[C@@]1(C)[C@@H](NC(=O)/C=C/c1c(C(=O)O)[nH]c3cc(Cl)cc(Cl)c13)C2` [Example 16, (E) 3-[2'-(1"-R-bornyl-2"-aminocarbonyl)ethenyl]-4,6-dichloroindole-2 carboxylic acid sodium salt]: the affinity in assay [1] corresponds to a Ki of 39.8 nM.

As to `O=C(/C=C/c1c(C(=O)[O-])[nH]c2cc(Cl)cc(Cl)c12)NC12CC3CC(CC(C3)C1)C2.[Na+]`, the ED50 with NMDA induced convulsions (Mus musculus, iv, read-out: ED50 (dose required to protect 50% of the animals from the convulsive action of NMDA), iv) was 0.02 mg/kg; in the assay on NMDA induced convulsions (Mus musculus, po, read-out: ED50 (dose required to protect 50% of the animals from the convulsive action of NMDA), po), 5.47 mg/kg.
